Calls of active or inactive are those of the source.
How the values were obtained:
[1] = inhibition of ADAM10 peptide cleavage – biochemical, FRET peptide substrate, recombinant human ADAM10, selectivity assay for ADAM17 exosite inhibitor project, dose response (AID 743259);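 further: ADAM10 enzyme cleaving a FRET peptide substrate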
[2] = molecular target: Disintegrin and metalloproteinase domain-containing protein 17 (Homo sapiens, UniProt P78536); assay: exosite inhibitors of ADAM17, dose response, biochemical (AID 743260)
Sequence of Disintegrin and metalloproteinase domain-containing protein 17 (P78536 whole entry, the tested form may be a part): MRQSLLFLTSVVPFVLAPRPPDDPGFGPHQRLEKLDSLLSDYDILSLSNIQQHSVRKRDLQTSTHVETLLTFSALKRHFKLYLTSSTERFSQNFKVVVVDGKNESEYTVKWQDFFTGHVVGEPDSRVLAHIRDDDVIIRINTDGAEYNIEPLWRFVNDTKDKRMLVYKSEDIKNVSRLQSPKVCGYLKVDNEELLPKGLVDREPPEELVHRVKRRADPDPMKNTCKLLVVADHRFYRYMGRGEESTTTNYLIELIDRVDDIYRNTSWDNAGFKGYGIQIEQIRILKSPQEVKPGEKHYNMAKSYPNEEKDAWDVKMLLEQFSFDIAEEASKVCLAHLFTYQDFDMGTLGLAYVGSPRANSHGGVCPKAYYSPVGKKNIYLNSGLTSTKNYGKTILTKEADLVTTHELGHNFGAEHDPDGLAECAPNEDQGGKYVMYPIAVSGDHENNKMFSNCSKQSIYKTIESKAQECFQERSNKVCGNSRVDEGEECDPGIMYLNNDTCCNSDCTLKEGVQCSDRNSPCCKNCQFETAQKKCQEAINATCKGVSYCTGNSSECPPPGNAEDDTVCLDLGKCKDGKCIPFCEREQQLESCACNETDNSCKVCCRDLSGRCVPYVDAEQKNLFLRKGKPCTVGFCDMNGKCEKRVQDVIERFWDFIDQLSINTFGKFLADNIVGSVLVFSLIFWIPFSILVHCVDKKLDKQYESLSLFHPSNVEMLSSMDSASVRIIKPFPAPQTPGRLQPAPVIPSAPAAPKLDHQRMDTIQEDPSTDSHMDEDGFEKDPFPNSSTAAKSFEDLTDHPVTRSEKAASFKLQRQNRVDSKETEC

Streptokinase A = molecular target: T1, Streptokinase A (Streptococcus pyogenes serotype M1, UniProt P10520); assay: viability-normalized secreted streptokinase activity reduction – plasminogen activation absorbance, OD405, dose response (AID 1914); format: functional, Streptococcus pyogenes M1 GAS;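 further: secreted streptokinase activity via plasminogen activation per viability signal from cell pellet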
T1 sequence (P10520 whole entry): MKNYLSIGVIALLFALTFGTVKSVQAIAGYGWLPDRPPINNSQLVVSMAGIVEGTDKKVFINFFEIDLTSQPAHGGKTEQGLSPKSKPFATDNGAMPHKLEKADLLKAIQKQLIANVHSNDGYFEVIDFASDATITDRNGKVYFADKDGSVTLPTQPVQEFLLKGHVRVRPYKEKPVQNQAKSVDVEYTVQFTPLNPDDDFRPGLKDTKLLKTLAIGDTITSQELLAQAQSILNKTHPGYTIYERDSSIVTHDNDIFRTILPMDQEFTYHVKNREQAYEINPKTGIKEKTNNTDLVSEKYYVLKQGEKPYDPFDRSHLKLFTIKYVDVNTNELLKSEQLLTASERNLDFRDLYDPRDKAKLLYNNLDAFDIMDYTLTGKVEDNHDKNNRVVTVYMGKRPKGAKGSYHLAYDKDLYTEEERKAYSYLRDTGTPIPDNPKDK

[3] = viability loss in Vero cells – cytotoxicity control for Vif-APOBEC3G degradation inhibitor project, dose response (AID 1117358); format: functional; settings: Vero
[4] = tested on: Streptococcus sp. 'group A'; assay: Streptococcus pyogenes SK(-)GAS viability under kanamycin – luminescence, BacTiterGlo, confirmation, counter-screen for streptokinase expression inhibitor project, dose response (AID 1900); format: functional, organism-based
Streptococcus = assay: GAS UMAA2166 growth inhibition – luminescence, BacTiterGlo, counter-screen for streptokinase expression inhibitor project, dose response (AID 1915); format: functional, organism-based;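 further: potency for reduction of bacterial viability or growth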
[5] = molecular target: T2, Mannose-6-phosphate isomerase (Homo sapiens, UniProt P34949); assay: MPI inhibition at elevated mannose 6-phosphate – biochemical, fluorescence intensity, high mannose 6-phosphate, primary screen (AID 1220)
T2 sequence (P34949 whole entry): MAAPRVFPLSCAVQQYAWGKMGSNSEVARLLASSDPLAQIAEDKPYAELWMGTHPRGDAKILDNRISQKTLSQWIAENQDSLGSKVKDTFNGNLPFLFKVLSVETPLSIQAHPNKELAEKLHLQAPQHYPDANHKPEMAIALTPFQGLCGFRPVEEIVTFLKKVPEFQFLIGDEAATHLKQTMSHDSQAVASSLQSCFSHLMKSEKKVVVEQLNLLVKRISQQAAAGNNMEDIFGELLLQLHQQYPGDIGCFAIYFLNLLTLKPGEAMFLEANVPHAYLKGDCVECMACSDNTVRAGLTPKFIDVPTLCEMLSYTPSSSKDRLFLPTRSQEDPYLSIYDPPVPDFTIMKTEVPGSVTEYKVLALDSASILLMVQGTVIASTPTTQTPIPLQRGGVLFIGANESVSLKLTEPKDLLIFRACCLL

[6] = CellTiter-Glo luminescence survival assay, SW480 colon tumor line, concentration-response curve, half-maximal inhibitory concentration (AID 1117338); format: functional
[7] = RKO cell viability reduction, dose response, CellTiter-Glo luminescence (AID 1117322); format: functional
[8] = SNU-C1 cell viability reduction, dose response, CellTiter-Glo luminescence (AID 1117323); format: functional, cell-based
[9] = cytotoxicity toward HT-29 cells – cell-based, CellTiter-Glo luminescence, IC50, dose response (AID 1117330); format: functional
[10] = cytotoxicity toward Colo320 cells – cell-based, CellTiter-Glo luminescence, IC50, dose response (AID 1117334); format: functional; settings: COLO 320
[11] = Reduced DLD-1 viability, concentration-response, CellTiter-Glo luminescence (AID 1117352); format: functional
[12] = cytotoxicity toward HCT116 cells – cell-based, CellTiter-Glo luminescence, IC50, dose response (AID 1117332); format: functional; settings: HCT-116
[13] = viability loss in human Jurkat cells – cell-based, luminescence, cytotoxicity control for P. falciparum gametocyte viability project, dose response (AID 1117277); format: functional;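 further: potency reflects loss of cellular ATP meaning fewer viable cells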
[14] = viability inhibitors of stage V gametocytes – luminescence, dose response (AID 1117278); format: functional, cell-based;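 further: gametocytes exposed to compound for 24 hours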
[15] = molecular target: Oxysterols receptor LXR-beta (Homo sapiens, UniProt P55055); format: functional, cell-based;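 further: Cell-based luminescence dose-response assay of agonist activity at LXR, run as a confirmatory counterscreen to a daf-12 agonist screen; HEK293 cells with Gal4-LXR fusion and GAL4-driven luciferase reporter; agonist potency from rising luciferase signal of a Gal4-LXR reporter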
Sequence of Oxysterols receptor LXR-beta (P55055 whole entry, the tested form may be a part): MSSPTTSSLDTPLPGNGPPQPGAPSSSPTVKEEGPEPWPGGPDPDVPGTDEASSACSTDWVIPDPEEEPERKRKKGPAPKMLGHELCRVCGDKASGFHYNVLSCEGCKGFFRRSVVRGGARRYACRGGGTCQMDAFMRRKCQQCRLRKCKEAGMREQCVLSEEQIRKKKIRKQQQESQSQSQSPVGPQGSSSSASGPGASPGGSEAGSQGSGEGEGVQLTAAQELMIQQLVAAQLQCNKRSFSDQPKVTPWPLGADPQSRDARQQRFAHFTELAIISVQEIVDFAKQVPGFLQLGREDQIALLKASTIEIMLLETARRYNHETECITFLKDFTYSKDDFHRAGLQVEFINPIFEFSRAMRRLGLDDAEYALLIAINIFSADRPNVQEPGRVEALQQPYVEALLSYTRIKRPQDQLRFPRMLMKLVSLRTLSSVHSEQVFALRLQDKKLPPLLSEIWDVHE

[16] = Luminescence Cell-Based Dose Retest to Confirm Inhibitors of Cancer Stem Cells. [Related pubchem assays (depositor defined):AID2717, AID2721]; format: functional; settings: Homo sapiens
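Wherever AC50 is given: cells exposed to compound for roughly 70 hours or longer before luminescence read.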

CCOC(=O)C1=CN(Cc2cccc(F)c2)S(=O)(=O)NC1c1ccc2ccccc2c1 (stereo unspecified)
IC50 [1]: > 7.73 µM (active) | IC50 [2]: > 69.5 µM (inactive)

O=c1c2c(nc(NCCO)n1CC1CCCCC1)-c1ccccc1CC21CCCC1
EC50 (Streptokinase A): 3.48 µM (active) | CC50 [3]: > 40 µM (active) | EC50 [4]: 2.67 µM (active) | EC50 (Streptococcus): 19.3 µM (inconclusive)

O=[N+]([O-])c1c(NCCO)cc(N2CCCCC2)c2nonc12
IC50 [5]: > 50 µM (not active)

CC(C)NCC(O)COc1ccc(CCOCC2CC2)cc1 (stereo unspecified) [BETAXOLOL]
IC50 [6]: > 20 µM (inactive) | IC50 [7]: > 20 µM (inactive) | IC50 [8]: > 20 µM (inactive) | IC50 [9]: > 20 µM (inactive) | IC50 [10]: 6.17 µM (inactive) | IC50 [11]: > 20 µM (inactive) | IC50 [12]: > 20 µM (inactive)

O=C(Nc1cccc(C(=O)N2CCOCC2)c1)c1ccccc1
IC50 [13]: > 83.3 µM (inactive) | IC50 [14]: > 109 µM (inactive)

Cc1nn(-c2ccc(Cl)cc2)c(=O)c2ccccc12
EC50 [15]: > 67.5 µM (inactive) | EC50 (cells): > 67.5 µM (inactive)

O=S(=O)(c1ccccc1)N(CC(O)Cn1c2ccccc2c2ccccc21)c1ccccc1 (stereo unspecified)
IC50 [1]: > 69.5 µM (inactive) | IC50 [2]: > 69.5 µM (inactive) | AC50 [16]: 3.66 µM (active)

From ChEMBL document CHEMBL1201862, “PubChem BioAssay data set” (2004)
